Several values for one entry are separate records, joined by “and”; a condition that tells them apart may be missing. Equal values may be shown once. Activity calls are given as the source filed them.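 Rule for the calls: active = compounds giving half or more protection of infected cells from virus-caused growth loss, again on retest; inactive = the rest.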 Where a SMILES comes first, the peptide text is derived from it. [ ]: non-standard residue; d: D form. The star is where a group is joined. Hyp = O=C(O)[CH]1C[CH](O)CN1; Cbz = O=C(OCc1ccccc1)*
Test system: CEM cells HIV-1 protection, formazan growth assay
Test: NCI AIDS Antiviral Assay
Details: for IC50: measured here: growth of uninfected CEM cells
Summary of the method: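 Steps: treat uninfected and HIV-1-infected human CEM cells at five drug levels; quantify growth by soluble formazan; retest any compound reaching 50% protection; classify actives from the retest.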

Row | SMILES | EC50 [µM] | IC50 | outcome
1 | C=CCNC(=S)N1CC(C)C(=O)Nc2ccccc21 (stereo not given) | > 661 | > 661 µM | 
2 | Cc1c(/C=N/NC(=S)N2CCCCC2)c(=O)n(-c2ccccc2)n1C | > 200 | 28.8 µM | 
3 | CC(=O)NC(CCC(=O)c1ccc(Cl)cc1Cl)C(=O)O (stereo not given) | > 200 | > 200 µM | 
4 | Cn1c(=O)cc(C=Nc2ccc(-c3ccccc3)cc2)c2ccccc21 | > 100 | 2 µM | 
5 | CC(=O)Nc1ccccc1C[P+](c1ccccc1)(c1ccccc1)c1ccccc1 | > 200 | > 200 µM | 
6 | O=C(O)c1nc2ccc(C(F)(F)F)cc2[nH]c1=O | > 200 | > 200 µM | 
7 | C[N+]1(CCCCN2c3ccccc3Sc3cc(N=[N+]=[N-])ccc32)CCN(C(=O)CCNC(=O)Cc2ccc(C(=O)c3ccccc3)cc2)CC1 | > 100 | 15.5 µM | 
8 | C=C1CC[C@@H](O)[C@]2(C)CC[C@@H](C(C)(C)O)[C@@H](OC3OC(CO)C(O)C(O)C3O)C12 (stereo not given in full) | > 288 | > 288 µM | 
9 | O=C(Cn1c2ccc(Br)cc2c2nc3ccccc3nc21)NC1CCCCC1 | > 100 | > 100 µM | 
10 | CCOC(=O)C(=CNC(=S)N=Nc1c(O)[nH]c2ccccc12)C(=O)OCC | > 200 | 70.8 µM | 
11 | CC1(C)CC(=O)C(CC2C(=O)c3ccccc3C2=O)C(=O)C1 | > 120 | > 120 µM | 
12 | COc1ccc(-n2c(N)c(C#N)c3c(c2=S)CCC3)cc1 | > 316 | > 316 µM | 
13 | CC(C)CN(CC(C)C)C(=O)C(Br)C(Br)C(=O)O (stereo not given) | > 200 | 91.2 µM | 
14 | CC[C@H](NC(=O)OC(C)(C)C)C(=O)NCP(=O)(OCc1ccc([N+](=O)[O-])cc1)OCc1ccc([N+](=O)[O-])cc1 | > 200 | 33.9 µM | 
15 | C/C=C/OC1C(C2COC(C)(C)O2)OC2OC(C)(C)OC21 (stereo not given) | > 200 | > 200 µM | 
16 | O=C1C(Cl)N(c2cccc([N+](=O)[O-])c2)C1c1c[nH]c2ccccc12 (stereo not given) | > 105 | 5.01 µM | 
17 | COC(=O)C1=C(\c2ccccc2)c2ccccc2C(=O)N(C2CCCCC2)/C=C\1 | > 200 | 25.7 µM | 
18 | CNC(=O)NCNC(=O)NC | > 562 | > 562 µM | 
19 | COC(=O)CCN(CCC(=O)OC)C1CC1 | > 200 | > 200 µM | 
20 | CC1=CC(=O)/C(=C/N2C(=O)CNC2=S)C(=O)O1 | > 200 | > 200 µM | 
21 | Cc1nn(C)c2nc3ccc(Cl)cc3c(-c3ccccc3)c12 | > 200 | > 200 µM | 
22 | CCCS(=N)(=O)CCC(N)C(=O)O (stereo not given) | > 200 | > 200 µM | 
23 | Cc1ccc(S)c(C(O)(C(F)(F)F)C(F)(F)F)c1 | > 200 | 12 µM | 

Row | SMILES | EC50 [µM] | IC50 | outcome
24 | Cc1ccc(OCC2OC(n3cnc4nc(N)nc(Cl)c43)CC2Oc2ccc(C)cc2)cc1 (stereo not given) | > 200 | > 200 µM | 
25 | Cc1nn2c(=O)c([N+](=O)[O-])c(/C=C/c3ccc(F)cc3)nc2s1 | > 200 | 5.25 µM | 
26 | CCOC(=O)C1=C(C)NC(C)=C(C(=O)OCC)C1c1ccc([N+](=O)[O-])s1 |  |  | inactive
27 | c1ccc(COc2ccc(C[P+](c3ccccc3)(c3ccccc3)c3ccccc3)cc2)cc1 | > 20 | 0.324 µM | 
28 | COC(=O)C1ON(C(=O)c2ccccc2)C(C)C2OC12 (stereo not given) | > 324 | > 324 µM | 
29 | CC(=O)NC(CCCNC(=O)N(C)N=O)C(=O)NCc1ccccc1 (stereo not given) | > 708 | > 708 µM | 
30 | O=C(/C=C/c1cc(O)c(O)cc1O)OCCc1ccccc1 | > 200 | 9.33 µM | 
31 | CC(=O)Nc1ccc(C(=O)NN2C(=O)C(Cl)/C2=C/c2ccco2)cc1 (stereo not given) |  |  | inactive
32 | Cc1ccc(S(=O)(=O)ON/N=C2/C3OC3[C@@H]3CCCC[C@H]23)cc1 (stereo not given in full) | > 389 | 195 µM | 
33 | COCCN1C(=O)C(NC(C)=O)C1COC(C)(C)C (stereo not given) | > 912 | > 912 µM | 
34 | COc1ccc(-c2coc3cc(O)ccc3c2=O)c(O)c1OC | > 200 | 14.8 µM | 
35 | CCOC(=O)CC1=NC(C)(C)CC(C)O1 (stereo not given) | > 200 | > 200 µM | 
36 | COC1OC(C(C)O)C2OC(C)(C)OC12 (stereo not given) | > 200 | > 200 µM | 
37 | NC(=S)N/N=c1\cc(C(=O)Nc2ccc([N+](=O)[O-])cc2[N+](=O)[O-])oc2ccccc12 | > 60.3 | > 60.3 µM | 
38 | O=c1[nH]c(=O)n(C2CC(O)C(CO)O2)cc1NN=NCCc1ccccc1 (stereo not given) | > 200 | > 200 µM | 
39 | COc1ccc2c(c1)C1Oc3ccccc3CC1(O)CO2 (stereo not given) | > 200 | 132 µM | 
40 | OCCN(CCO)c1cccc(N(CCO)CCO)c1 |  |  | inactive
41 | CCN(CC)CCCNC(=O)c1ccccc1Nc1c(Cl)cccc1Cl | > 200 | 6.76 µM | 
42 | FC(F)=C(c1ccc(-c2ccc(Cl)cc2)cc1)C(F)(F)F | > 200 | 20.9 µM | 
43 | CN(C)CCN1C(=O)CC(c2ccccc2)Sc2ccccc21 (stereo not given) | > 245 | > 245 µM | 
44 | COc1ccc(NCc2cc(OC)c(OC)c(OC)c2)cc1 | > 2 | 0.214 µM and 0.316 µM | 
45 | NC(=O)CNC(=O)C1CC(O)CN1C(=O)C1CCCN1C(=O)OCc1ccccc1 (stereo not drawn) (Cbz-Pro-[Hyp]-Gly-NH2; configuration not given here) | > 200 | > 200 µM | 
46 | Cc1ncc(CO)c(CO)c1S | > 200 | > 200 µM | 

Row | SMILES | EC50 [µM] | IC50 | outcome
47 | C1OC2OCC1O2 | > 2450 | > 2450 µM | 
48 | O=C(CC1(O)C(=O)Nc2c(Cl)ccc(Cl)c21)c1ccc(Cl)cc1Cl (stereo not given) | > 12.9 | > 12.9 µM | 
49 | COCC(C)(C)N=CN1CCc2ccccc2C1 | > 1000 | > 1000 µM | 
50 | Cc1csc2nc(-c3ccccc3)c(/C=N/NC(=O)CN(C)C)n12 |  |  | inactive
51 | COC(=O)/C(=N\NC(=O)c1ccccc1O)C(C#N)c1ccccc1 (stereo not given) | > 741 | 5.62 µM | 
52 | COP(=O)(OC)/C(=C/c1c[nH]c2ccccc12)C(=O)O | > 200 | > 200 µM | 
53 | OC12COc3ccccc3C1Oc1ccccc1C2 (stereo not given) |  |  | inactive
54 | CC(C)(C)c1cc2c(c(C(C)(C)C)c1O)CC(=O)O2 | > 200 | 41.7 µM | 
55 | O=C1C(Br)=C(C2=CC(=P(c3ccccc3)(c3ccccc3)c3ccccc3)C=C2)C(=O)C(Br)=C1C1=CC(=P(c2ccccc2)(c2ccccc2)c2ccccc2)C=C1 | > 50.1 | > 50.1 µM | 
56 | COc1cc2c(c([N+](=O)[O-])c1)NCCS2 | > 200 | > 200 µM | 
57 | Cn1cnc([N+](=O)[O-])c1Sc1nc2ccccc2s1 | > 24.5 | 3.24 µM | 
58 | Cc1nc2c(cc1C(=O)NN)c(=O)n(C)c(=O)n2C | > 200 | > 200 µM | 
59 | COc1ccc(Nc2nc(C#N)c(N)s2)cc1 | > 490 | 117 µM | 
60 | O=C(/C=C/c1ccccc1)CC(=O)c1ccccc1.O=C(/C=C/c1ccccc1)CC(=O)c1ccccc1.[Cu] | > 200 | 95.5 µM | 
61 | Cn1c(=O)c2c(nc3sc4ccccc4c(=O)n32)n(C)c1=O | > 151 | > 151 µM | 
62 | CC1C(=O)N(c2ccccc2)NC12CCCc1ccccc12 (stereo not given) | > 200 | 91.2 µM | 
63 | COc1ccc(OC)c(CCc2cc(OC)c(OC)cc2C)c1 | > 58.9 | 2.82 µM | 
64 | Cc1ccc(S(=O)(=O)N(C=O)N=C2CCN(Cc3ccccc3)CC2)cc1 | > 61.7 | > 61.7 µM | 
65 | Cc1cccc2c1Sc1ccccc1C2NC(=O)CN(C)C (stereo not given) | > 417 | 102 µM | 
66 | CC1(C)CCC(C)(C)c2cc(NC(=O)c3ccc(C(=O)O)cc3)ccc21 | > 200 | 95.5 µM | 
67 | CCN1CCC(O)(/C=C/c2ccc(C)cc2C)C(C(=O)/C=C/c2ccc(C)cc2C)C1 (stereo not given) | > 200 | 3.24 µM | 
68 | CC1=C2N3C[C@@H](n4c(=O)n(C)c(=O)n43)C23CCC1n1c(=O)n(C)c(=O)n13 | > 72.4 | > 72.4 µM | 
69 | O=c1[nH]cc(CCl)c(=O)[nH]1 | > 200 | > 200 µM | 

Row | SMILES | EC50 [µM] | IC50 | outcome
70 | COc1cc(CC(=O)c2ccc3c(c2)OCO3)cc(OC)c1OC | > 204 | > 204 µM | 
71 | Cc1[nH]n(C2=NCCN2)c(=O)c1C | > 200 | > 200 µM | 
72 | CC(=O)/C=C(/C=N/O)c1ccccc1 | > 200 | > 200 µM | 
73 | O=C1CC(NC(=O)C(F)(F)F)c2c1csc2Br (stereo not given) | > 200 | 115 µM | 
74 | Cc1n(Cc2ccccc2)nc2sc(N)n[n+]12 | > 200 | 64.6 µM | 
75 | C#CCN1C(=O)c2ccccc2S1(=O)=O.[C-]#[O+].[C-]#[O+].[C-]#[O+].[C-]#[O+].[C-]#[O+].[C-]#[O+].[Co].[Co] | > 200 | 7.08 µM | 
76 | O=C1C2CCC(N1c1ccc(F)cc1)n1c(=O)n(-c3ccccc3)c(=O)n12 (stereo not given) |  |  | inactive
77 | O=C(NCCN(CCNC(=O)c1cccc(=O)n1O)CCN(CCNC(=O)c1cccc(=O)n1O)CCNC(=O)c1cccc(=O)n1O)c1cccc(=O)n1O | > 200 | > 200 µM | 
78 | O=C1CC(c2ccc(O)c(O)c2)c2c(cc(O)c3c2O[C@H](c2ccc(O)c(O)c2)[C@H](O)C3)O1 (stereo not given in full) | > 200 | 31.6 µM | 
79 | O=C1C=C(c2ccccc2)C(c2ccccc2)C1O (stereo not given) | > 200 | 135 µM | 
80 | O=[N+]([O-])c1ccc(/C(Cl)=C/c2ccc(/C=C(\Cl)c3ccc([N+](=O)[O-])cc3[N+](=O)[O-])cc2)c([N+](=O)[O-])c1 | > 1.41 | > 1.41 µM | 
81 | COc1nc2nc(C(O)C(O)CO)cnc2c(=O)n1C (stereo not given) | > 891 | > 891 µM | inactive
82 | O=[N+]([O-])C(=C/c1ccccc1)/C(=C\c1ccccc1)[N+](=O)[O-] | > 200 | 15.5 µM | 
83 | C(=N\NC1=NCCN1)/c1ccc(-c2cn3cc(/C=N/NC4=NCCN4)ccc3n2)cc1 | > 53.7 | 3.72 µM | 
84 | Cn1c2c(cc(-c3ccccc3)c1=O)COc1ccccc1-2 | > 89.1 | 46.8 µM | 
85 | CCC(C)(C)NS(=O)(=O)c1ccccc1 |  |  | inactive
86 | N#Cc1c(NC(=O)CN2CCOCC2)c(C(=O)Nc2ccccc2)n2c1CCC2 | > 200 | > 200 µM | 
87 | O=[N+]([O-])c1ccc2c(c1)-c1ccccc1S2(=O)=O |  |  | inactive
88 | CC(C)C(=O)/C=C/c1c(Cl)cccc1Cl |  |  | inactive
89 | CCn1c(=O)c2c3ccc(OC)cc3[nH]c2c2ccc(OC)cc21 | > 200 | 56.2 µM | 

— PubChem BioAssay AID179 (DTP/NCI, 2004)
